In patent US11242321B2, “Salt forms of organic compound” (KAINOS MEDICINE INC., priority 2018, dated 2022):

Legend:
[1] = Solubility screen of the free acid in various solvents (incremental solvent addition, visual); assay type: physicochemical; settings: Ca. 10 mg free acid
Excerpt: The free base (or zwitterionic) Compound 1 can be dissolved in unbuffered water, a range of organic solvents, mixtures of organic solvents and mixtures of solvents with unbuffered water. The solvents assessed were 1,1-dimethoxyethane, acetonitrile, ethanol, 1,2-dichloroethane, benzonitrile, ethyl acetate, 1,4-dioxane, anisole, heptane, 2-butanol, cumene, hexane, 2-propanol, cyclohexane, isopropyl acetate, 4-methyl-pentan-2-one, dichloromethane, methanol, acetone, diisopropyl ether (DIPE), isobutyl acetate, tetralin, toluene, methylethyl ketone, N-methylpyrrolidone, tert-butylmethyl ether, nitromethane, pyridine, tetrahydrofuran.
Ca. 10 mg of the free acid of Compound 1 was weighed into 2 mL HPLC vials prior to the addition of solvent in 100-250 μL increments up to a maximum of 1750 μL. After each addition of solvent the samples were briefly shaken to encourage dissolution and visually inspected for signs of any remaining solid. Once the maximum volume of solvent had been added, 1.1 eq of 1M NaOH(aq) solution was also added, to give an indication as to which of the solvents would yield a suitable salt form. The samples were visually inspected prior to maturation for 2 days, after which all were inspected again. All the samples were then left to evaporate at RT to generate solid material.

[2] = Aqueous solubility assessment of salt screen solids (visual); settings: Ca. 5 mg in up to 4000 μL water (1.25 mg/ml), shaken overnight at 50° C.; for Solubility assessment (dissolution in deionized water), salt from MIBK: salt prepared from MIBK; for Solubility assessment (dissolution in deionized water), salt from DIPE: salt prepared from DIPE; for Solubility assessment (dissolution in deionized water), salt From Ethanol: salt prepared from ethanol
Experimental: Aqueous solubility assessment was performed using Ca. […] These samples were added to aliquots of deionized water up to a maximum of 4000 μL with the samples being shaken between additions to encourage dissolution prior to a visual inspection.

[3] = Dynamic vapor sorption (DVS); assay type: physicochemical; settings: for XRPD post DVS: after double cycle 0-90% RH
Experimental: SMS DVS Intrinsic dynamic vapour sorption instrument using DVS-Intrinsic control software v1.0.6.0. Analysis of the data was performed using the DVS analysis suite v7.0.13.1 macro program embedded in Microsoft Excel. Analysis was performed as a wt % change from 0-90% RH with isothermal plots also being examined.
Ca. 10-15 mg of sample was weighed into a stainless steel DVS basket before submitting for analysis. The samples were analysed over the range of 0-90% RH with a maximum time of 6 hours per humidity stage. Each sample was exposed to a double cycle. XRPD analysis of all samples was performed post-DVS.

FaSSIF/FeSSIF solubility = assay type: physicochemical; settings: thermodynamic from solid, shaken 24 h at 37° C.
Experimental: Ca. 25 mg of each of the salts were weighed into a 2 mL HPLC vial prior to the addition of 1 mL of Fasting State Simulated Intenstinal Fluid (FaSSIS) solution. […] The experiment was also repeated using Fed State Simulated Intestinal Fluid (FeSSIF) solution.

pH of saturated solution = assay type: physicochemical; settings: saturated solution in deionized water, room temperature
Experimental: A saturated solution of each of the salts was prepared in 5 mL of deionized water at room temperature prior to analysis.

[4] = Stability at 40° C./75% RH; assay type: physicochemical; settings: for Chemical purity post stability (40° C./75% RH): HPLC
pH1 stability = assay type: physicochemical; settings: pH 1 buffer, 4 h at 37° C.; for Chemical purity post stability (pH 1 for 4 h): HPLC; for 1H NMR post stability (pH 1 for 4 h): cell continues: salt form is no longer present
Experimental: Ca. 25 mg of each of the salts were weighed into a 2 mL HPLC vial prior to the addition of 1 mL of pH 1 buffer. The samples were then shaken for 4 h at 37° C. before being filtered into SPE cartridges and dried overnight.

[5] = Aqueous solubility, 24 h shake, gravimetric; assay type: physicochemical; settings: thermodynamic from solid, deionized water
Experimental: Ca. 50 mg of each of the salts were weighed into a 2 mL HPLC vial prior to the addition of 1 mL of deionized water. […] The experiment was also repeated at 50° C.

In the case of O=C(CSc1ccc(Br)cc1)Nc1cn(CCc2ccccc2)nc1C(=O)O [Compound 1, 4-(2-((4-bromophenyl)thio)acetamido)-1-phenethyl-1H-pyrazole-3-carboxylic acid], the “Solvent Addition” value ([1]; solvent 1,1-Dimethoxyethane, increments up to maximum 1750 μL) is reported as 1750 µL, the “Solvent Addition” value ([1]; solvent 1,2-Dichloroethane, maximum 1750 μL) is reported as 1750 µL and the “Solvent Addition” value ([1]; solvent 1,4-Dioxane, maximum 1750 μL) is reported as 750 µL. The “Solvent Addition” value ([1]; solvent 2-Butanol, maximum 1750 μL) was 1750 µL, the “Solvent Addition” value ([1]; solvent 2-Propanol, maximum 1750 μL) was 1750 µL and the “Solvent Addition” value ([1]; solvent 4-methyl-pentan-2-one, maximum 1750 μL) was 1750 µL. The “Solvent Addition” value ([1]; solvent Acetone, maximum 1750 μL) was 1750 µL, the “Solvent Addition” value ([1]; solvent Acetonitrile, maximum 1750 μL) was 1750 µL and the “Solvent Addition” value ([1]; solvent Anisole, maximum 1750 μL) was 1750 µL. The “Solvent Addition” value ([1]; solvent Benzonitrile, maximum 1750 μL) was 1750 µL, the “Solvent Addition” value ([1]; solvent Cumene, maximum 1750 μL) was 1750 µL and the “Solvent Addition” value ([1]; solvent Cyclohexane, maximum 1750 μL) was 1750 µL. The “Solvent Addition” value ([1]; solvent Dichloromethane, maximum 1750 μL) was 1750 µL, the “Solvent Addition” value ([1]; solvent Diisopropyl ether, maximum 1750 μL) was 1750 µL and the “Solvent Addition” value ([1]; solvent Ethanol, maximum 1750 μL) was 1750 µL. For the same compound, the “Solvent Addition” value ([1]; solvent Ethyl acetate, maximum 1750 μL) was 1750 µL, the “Solvent Addition” value ([1]; solvent Heptane, maximum 1750 μL) was 1750 µL and the “Solvent Addition” value ([1]; solvent Hexane, maximum 1750 μL) was 1750 µL. For the same compound, the “Solvent Addition” value ([1]; solvent Isobutyl Acetate, maximum 1750 μL) was 1750 µL, the “Solvent Addition” value ([1]; solvent Isopropyl acetate, maximum 1750 μL) was 1750 µL and the “Solvent Addition” value ([1]; solvent Methanol, maximum 1750 μL) was 1750 µL. The “Solvent Addition” value ([1]; solvent Methylethyl ketone, maximum 1750 μL) was 1750 µL, the “Solvent Addition” value ([1]; solvent N-Methylpyrrolidone, maximum 1750 μL) was 250 µL and the “Solvent Addition” value ([1]; solvent Nitromethane, maximum 1750 μL) was 1750 µL. For the same compound, the “Solvent Addition” value ([1]; solvent Pyridine, maximum 1750 μL) was 1750 µL, the “Solvent Addition” value ([1]; solvent Tetrahydrofuran, maximum 1750 μL) was 750 µL and the “Solvent Addition” value ([1]; solvent Tetralin, maximum 1750 μL) was 1750 µL. For the same compound, the “Solvent Addition” value ([1]; solvent Toluene, maximum 1750 μL) was 1750 µL, the “Solvent Addition” value ([1]; solvent Water, maximum 1750 μL) was 1750 µL and the “Solvent Addition” value ([1]; solvent tert-Butylmethyl ether, maximum 1750 μL) was 1750 µL.
For O=C(CSc1ccc(Br)cc1)Nc1cn(CCc2ccccc2)nc1C(=O)O.c1ccc(CNCCNCc2ccccc2)cc1 [N,N′-Dibenzylethylenediamine, salt of 4-(2-((4-bromophenyl)thio)acetamido)-1-phenethyl-1H-pyrazole-3-carboxylic acid and N,N′-dibenzylethylenediamine], the “Solubility assessment (dissolution in deionized water), salt from MIBK” value [2] was “No dissolution”.
With CCNC[C@H](O)[C@@H](O)[C@H](O)[C@H](O)CO.O=C(CSc1ccc(Br)cc1)Nc1cn(CCc2ccccc2)nc1C(=O)O [N-Ethylglucamine, salt of 4-(2-((4-bromophenyl)thio)acetamido)-1-phenethyl-1H-pyrazole-3-carboxylic acid and N-ethylglucamine] the “Solubility assessment (dissolution in deionized water), salt from DIPE” value (from here on “Solubility assessment … from DIPE”) [2] was “Partial” and the “Solubility assessment (dissolution in deionized water), salt From Ethanol” value (“Solubility assessment … salt From Ethanol” below) [2] was “Partial”.
In the case of CNC[C@H](O)[C@@H](O)[C@H](O)[C@H](O)CO.O=C(CSc1ccc(Br)cc1)Nc1cn(CCc2ccccc2)nc1C(=O)O [N-Methylglucamine, salt of 4-(2-((4-bromophenyl)thio)acetamido)-1-phenethyl-1H-pyrazole-3-carboxylic acid and N-methylglucamine], the “Solubility assessment … salt From Ethanol” value [2] is reported as “Partial”.
With O=C(CSc1ccc(Br)cc1)Nc1cn(CCc2ccccc2)nc1C(=O)[O-].[K+] [potassium salt, 4-(2-((4-bromophenyl)thio)acetamido)-1-phenethyl-1H-pyrazole-3-carboxylic acid potassium salt] the “DVS mass increase between 0-90% RH, first cycle” value ([3]; 0-90% RH) was “Ca. 5.7% mass increase between 0-90% RH on the first cycle”, the “XRPD post DVS” value [3] was “Partially crystalline-pattern is different from free acid indicating” and the solubility at 24 h (FaSSIF/FeSSIF solubility; FaSSIF, read-out: FaSSIF solubility @ 37° C.) was 1500 µg/mL. The solubility at 24 h (FaSSIF/FeSSIF solubility; FeSSIF, read-out: FeSSIF solubility @ 37° C.) was 1600 µg/mL, the “pH of rm temp sat'd sol'n” value (pH of saturated solution) was 9.21 and the “Observation post stability (40° C./75% RH)” value [4] was “No visible change”. For the same compound, the “XRPD post stability (40° C./75% RH)” value [4] was “Partially crystalline-no change in form”, the “Chemical purity post stability (40° C./75% RH)” value [4] was >99.9% (by peak area) and the “Observations post stability (pH 1 for 4 h)” value (pH1 stability) was “No visual change”. The “XRPD post stability (pH 1 for 4 h)” value (pH1 stability) was “Partially crystalline: change in crystalline form compared to the”, the “Chemical purity post stability (pH 1 for 4 h)” value (pH1 stability) was >99.9% (by peak area) and the “1H NMR post stability (pH 1 for 4 h)” value (pH1 stability) was “Reduction in chemical shifts, indicating that salt form is no”. For the same compound, the solubility at 24 h ([5]; shaken 24 h at 25° C., read-out: Aqueous solubility @ 25° C.) was 6600 µg/mL, the solubility at 24 h ([5]; shaken 24 h at 50° C.) was 16200 µg/mL and the “Solubility assessment … from DIPE” value [2] was “Complete”. The “Solubility assessment (dissolution in deionized water), salt from MIBK” value [2] was “Partial” and the “Solubility assessment … salt From Ethanol” value [2] was “Complete”.
In the case of “salt of 4-(2-((4-bromophenyl)thio)acetamido)-1-phenethyl-1H-pyrazole-3-carboxylic acid and N-(phenylmethyl)benzeneethaneamine [N-(Phenylmethyl) benzeneethaneamine]”, the “Solubility assessment … from DIPE” value [2] is reported as “No dissolution” and the “Solubility assessment … salt From Ethanol” value [2] is reported as “No dissolution”.
In the case of “salt of 4-(2-((4-bromophenyl)thio)acetamido)-1-phenethyl-1H-pyrazole-3-carboxylic acid and calcium acetate”, the “Solubility assessment … salt From Ethanol” value [2] is reported as “No dissolution”.
For “salt of 4-(2-((4-bromophenyl)thio)acetamido)-1-phenethyl-1H-pyrazole-3-carboxylic acid and diethylamine [diethylamine salt]”, the “DVS mass increase between 0-90% RH, first cycle” value ([3]; 0-90% RH) was “Ca. 0.1% mass increase between 0-90% RH on the first cycle”, the “DVS mass increase between 0-90% RH, second cycle” value ([3]; 0-90% RH, second cycle) was “Ca. 0.1% mass increase between 0-90% RH on the first cycle” and the “XRPD post DVS” value [3] was “Crystalline-no change in form”. For the same compound, the “Observation post stability (40° C./75% RH)” value [4] was “No visible change”, the “XRPD post stability (40° C./75% RH)” value [4] was “Crystalline-no change in form” and the “Chemical purity post stability (40° C./75% RH)” value [4] was >99.9% (by peak area). For the same compound, the “Observations post stability (pH 1 for 4 h)” value (pH1 stability) was “No visual change”, the “Chemical purity post stability (pH 1 for 4 h)” value (pH1 stability) was >99.9% (by peak area) and the “1H NMR post stability (pH 1 for 4 h)” value (pH1 stability) was “Reduction in chemical shifts, indicating that salt form is no”.
For “salt of 4-(2-((4-bromophenyl)thio)acetamido)-1-phenethyl-1H-pyrazole-3-carboxylic acid and magnesium acetate”, the “Solubility assessment … salt From Ethanol” value [2] was “No dissolution”.
With “salt of 4-(2-((4-bromophenyl)thio)acetamido)-1-phenethyl-1H-pyrazole-3-carboxylic acid and tromethamine” the “Solubility assessment … salt From Ethanol” value [2] was “No dissolution”.
